In ChEMBL document CHEMBL5236599, “Design, synthesis and biological evaluation of cajanonic acid A analogues as potent PPAR γ antagonists” (Bioorg Med Chem Lett, 2023):

Columns and labels:
[1] = molecular target: T1, Peroxisome proliferator-activated receptor gamma (Homo sapiens, UniProt P37231); experiment: Displacement of Fluormone Pan-PPAR Green from human recombinant GST-tagged PPARgamma LBD (201 to 475 residues) expressed in insect cells incubated for 2 hrs in dark by LantahScreen TR-FRET assay
T1 sequence (P37231 whole entry): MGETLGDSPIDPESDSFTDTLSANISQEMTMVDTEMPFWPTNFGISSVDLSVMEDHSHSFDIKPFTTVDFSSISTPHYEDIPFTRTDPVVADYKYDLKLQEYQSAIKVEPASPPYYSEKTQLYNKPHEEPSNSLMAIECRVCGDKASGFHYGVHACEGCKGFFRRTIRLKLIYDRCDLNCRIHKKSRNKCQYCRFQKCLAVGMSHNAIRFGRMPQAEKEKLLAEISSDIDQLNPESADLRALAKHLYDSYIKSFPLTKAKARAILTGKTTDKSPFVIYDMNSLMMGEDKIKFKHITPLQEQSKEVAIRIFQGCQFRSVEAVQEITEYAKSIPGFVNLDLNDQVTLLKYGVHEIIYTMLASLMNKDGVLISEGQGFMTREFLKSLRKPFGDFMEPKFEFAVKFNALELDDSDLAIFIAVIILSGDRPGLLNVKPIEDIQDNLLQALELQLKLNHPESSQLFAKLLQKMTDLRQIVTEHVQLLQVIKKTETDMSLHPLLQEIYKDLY

[2] = molecular target: T2, Peroxisome proliferator-activated receptor gamma (Homo sapiens) (UniProt P37231); experiment: Antagonist activity at PPAR-gamma (unknown origin) transfected in human HEK293 cells assessed as decrease in rosiglitazone-induced receptor transactivation at 10 uM by dual-luciferase reporter gene assay relative to control; assay type: cell-based; conditions: filed as antagonist
T2 sequence (whole entry): T1 sequence (P37231 whole entry)

[3] = Induction of insulin-sensitizing activity in insulin-resistant mouse 3T3-L1 cells assessed as increase in glucose consumption at 0.1 uM relative to control; assay type: functional
[4] = Induction of insulin-sensitizing activity in insulin-resistant mouse 3T3-L1 cells assessed as glucose consumption at 0.1 uM (reference value: 3.354 +/- 0.342 mM); assay type: functional
[5] = molecular target: T3, Peroxisome proliferator-activated receptor gamma (Mus musculus, UniProt P37238); experiment: Agonist activity at PPAR-gamma in mouse 3T3-L1 cells assessed as increase in adipogenesis by measuring increase in oil red staining at 1 uM by Oil-red O staining based analysis relative to control; assay type: toxicity, cell-based; conditions: 3t3-l1, 1 µM
T3 sequence (P37238 whole entry): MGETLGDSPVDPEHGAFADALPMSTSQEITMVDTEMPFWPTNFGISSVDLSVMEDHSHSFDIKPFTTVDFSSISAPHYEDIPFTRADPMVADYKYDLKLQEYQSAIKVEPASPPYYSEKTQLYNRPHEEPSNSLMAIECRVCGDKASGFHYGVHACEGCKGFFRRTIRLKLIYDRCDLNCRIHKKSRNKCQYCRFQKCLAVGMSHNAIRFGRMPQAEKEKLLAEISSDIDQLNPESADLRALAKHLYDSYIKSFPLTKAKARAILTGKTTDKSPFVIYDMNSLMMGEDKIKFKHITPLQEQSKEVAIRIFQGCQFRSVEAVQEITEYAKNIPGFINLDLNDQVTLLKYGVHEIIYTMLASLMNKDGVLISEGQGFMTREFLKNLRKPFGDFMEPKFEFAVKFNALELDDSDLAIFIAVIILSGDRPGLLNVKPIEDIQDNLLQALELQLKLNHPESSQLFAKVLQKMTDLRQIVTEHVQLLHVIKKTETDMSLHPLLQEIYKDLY

Mus musculus = organism: Mus musculus; experiment: Hypoglycemic activity in db/db mouse assessed as AUC of blood glucose level by oral glucose tolerance test (reference value: 114.8 mmol.min/L); assay type: functional
[6] = Induction of insulin-sensitizing activity in insulin-resistant mouse 3T3-L1 cells assessed as increase in glucose consumption at 0.1 uM relative to rosiglitazone; assay type: functional
[7] = Induction of insulin-sensitizing activity in insulin-resistant human HepG2 cells assessed as increase in glucose consumption at 0.1 uM relative to control; assay type: functional
[8] = molecular target: T2, Peroxisome proliferator-activated receptor gamma (Homo sapiens); experiment: Antagonist activity at PPAR-gamma (unknown origin) transfected in human HEK293 cells assessed as decrease in rosiglitazone-induced receptor transactivation at 1 uM by dual-luciferase reporter gene assay relative to control; assay type: cell-based; conditions: filed as antagonist
[9] = Induction of insulin-sensitizing activity in insulin-resistant human HepG2 cells assessed as glucose consumption at 0.1 uM (reference value: 5.83 +/-0.101 mM); assay type: functional

Row | SMILES | IC50 [1] | inhibition [2] | Activity [3] | Activity [4] | Activity [5] | AUC (Mus musculus) | fold change (FC) [6] | Activity [7] | inhibition [8] | Activity [9]
1 | Cc1c(C)n(Cc2ccc(C(C)(C)C(=O)O)cc2)c2ccc(C(=O)N[C@@H](C)c3cccc(C4CC4)c3)cc12 | 108 nM | – | – | – | – | – | – | – | – | –
2 | COc1cc(O)c(C(=O)O)c(CC(=O)c2cccc(-c3ccccc3Cl)c2)c1CC=C(C)C | – | 96.2% | 72.61% | 6.471 mM | 7.04% | 106 mmol·min/L | 1.6 | 33.27% | 50.2% | 7.771 mM
